Values after ≈ are worked out from the molar mass of the structure shown. Numbered stars: 1 amine (or outer) side, 2 acyl side, 3 side chain; on linkers, the order of the positions; unused ones are H or OH. Bridge positions count the residues as written; N and C are the ends. Square brackets hold non-standard residues; d marks the D form. Peptide text beside a SMILES is read from it. * marks the point of attachment. hTyr(3S-OH,4S-OH,3'-OSO3H) = N[C@H](C(=O)O)[C@H](O)[C@@H](O)c1ccc(O)c(OS(=O)(=O)O)c1; pTerphenylCO(4''-OnC5H11) = CCCCCOc1ccc(-c2ccc(-c3ccc(C(=O)*)cc3)cc2)cc1; Orn(4R-OH,5R-OH) = O=C([C@H](C[C@@H](O)[C@@H](O)N[*:3])N[*:1])[*:2]; hTyr(3S-OH,4S-OH) = N[C@H](C(=O)O)[C@H](O)[C@@H](O)c1ccc(O)cc1; Pro(3S-OH,4S-Me) = C[C@H]1CN[C@H](C(=O)O)[C@H]1O; X1 = CCCCCOc1ccc(-c2cc(-c3ccc(C(=O)*)cc3)no2)cc1; Gln(3R-OH) = NC(=O)C[C@@H](O)[C@H](N)C(=O)O; Hyp = O=C(O)[C@@H]1C[C@@H](O)CN1
How the values were obtained:
Type in all cases: functional
Nakaseomyces glabratus [1] = assay: Antimicrobial activity against Candida glabrata isolate 7755 FKS2 F659V mutant gene after 48 hrs by broth dilution method in presence of 50% of human serum; conditions: isolate 7755, 48 h
Nakaseomyces glabratus [2] = assay: Antimicrobial activity against Candida glabrata isolate 7754 after 24 hrs by broth dilution method in presence of 50% of human serum; conditions: isolate 7754, 24 h
Nakaseomyces glabratus [3] = assay: Antimicrobial activity against Candida glabrata isolate 7754 after 48 hrs by broth dilution method in presence of 50% of human serum; conditions: isolate 7754, 48 h
Nakaseomyces glabratus [4] = assay: Antimicrobial activity against Candida glabrata isolate 7755 expressing FKS2 F659V mutant gene after 24 hrs by broth dilution method; conditions: isolate 7755, 24 h
Nakaseomyces glabratus [5] = assay: Antimicrobial activity against Candida glabrata isolate 7754 after 48 hrs by broth dilution method; conditions: isolate 7754, 48 h
Nakaseomyces glabratus [6] = assay: Antimicrobial activity against Candida glabrata isolate 7755 expressing FKS2 F659V mutant gene after 24 hrs by broth dilution method in presence of 50% of human serum; conditions: isolate 7755, 24 h
Nakaseomyces glabratus [7] = assay: Antimicrobial activity against Candida glabrata isolate 7754 after 24 hrs by broth dilution method; conditions: isolate 7754, 24 h
Nakaseomyces glabratus [8] = assay: Antimicrobial activity against Candida glabrata isolate 7755 FKS2 F659V mutant gene after 48 hrs by broth dilution method; conditions: isolate 7755, 48 h

| SMILES | MIC (Nakaseomyces glabratus [1]) [µg/mL] | MIC (Nakaseomyces glabratus [2]) [µg/mL] | MIC (Nakaseomyces glabratus [3]) [µg/mL] | MIC (Nakaseomyces glabratus [4]) [µg/mL] | MIC (Nakaseomyces glabratus [5]) [µg/mL] | MIC (Nakaseomyces glabratus [6]) [µg/mL] | MIC (Nakaseomyces glabratus [7]) [µg/mL] | MIC (Nakaseomyces glabratus [8]) [µg/mL] |
| --- | --- | --- | --- | --- | --- | --- | --- | --- |
| CCCCCOc1ccc(-c2cc(-c3ccc(C(=O)N[C@H]4C[C@@H](O)[C@@H](O)NC(=O)[C@@H]5[C@@H](O)[C@@H](C)CN5C(=O)[C@H]([C@H](O)CC(N)=O)NC(=O)[C@H]([C@H](O)[C@@H](O)c5ccc(O)c(OS(=O)(=O)O)c5)NC(=O)[C@@H]5C[C@@H](O)CN5C(=O)[C@H]([C@@H](C)O)NC4=O)cc3)no2)cc1 [MICAFUNGIN] (X1-[Orn(4R-OH,5R-OH)]T[Hyp][hTyr(3S-OH,4S-OH,3'-OSO3H)][Gln(3R-OH)][Pro(3S-OH,4S-Me)]; lactam 1-C) | 4 | 1 | 4 | 0.25 (≈ 0.197 µM) | 0.125 (≈ 0.0984 µM) | 4 | 0.125 (≈ 0.0984 µM) | 0.5 (≈ 0.394 µM) |
| CCCCCOc1ccc(-c2ccc(-c3ccc(C(=O)N[C@H]4C[C@@H](O)[C@@H](O)NC(=O)[C@@H]5[C@@H](O)[C@@H](C)CN5C(=O)[C@H]([C@@H](C)O)NC(=O)[C@H]([C@H](O)[C@@H](O)c5ccc(O)cc5)NC(=O)[C@@H]5C[C@@H](O)CN5C(=O)[C@H]([C@@H](C)O)NC4=O)cc3)cc2)cc1 [ANIDULAFUNGIN] ({pTerphenylCO(4''-OnC5H11)}-[Orn(4R-OH,5R-OH)]T[Hyp][hTyr(3S-OH,4S-OH)]T[Pro(3S-OH,4S-Me)]; lactam 1-C) | 4 | 1 | 2 | 0.5 (≈ 0.438 µM) | 0.125 (≈ 0.11 µM) | 4 | 0.125 (≈ 0.11 µM) | 1 (≈ 0.877 µM) |
| CC[C@H](C)C[C@H](C)CCCCCCCCC(=O)N[C@H]1C[C@@H](O)[C@@H](NCCN)NC(=O)[C@@H]2[C@@H](O)CCN2C(=O)[C@H]([C@H](O)CCN)NC(=O)[C@H]([C@H](O)[C@@H](O)c2ccc(O)cc2)NC(=O)[C@@H]2C[C@@H](O)CN2C(=O)[C@H]([C@@H](C)O)NC1=O [CASPOFUNGIN] | 8 | 0.5 | 0.5 | 2 (≈ 1.83 µM) | 0.25 (≈ 0.229 µM) | 2 | 0.25 (≈ 0.229 µM) | 8 (≈ 7.32 µM) |

Reference: ChEMBL document CHEMBL1275517, “Development of caspofungin resistance following prolonged therapy for invasive candidiasis secondary to Candida glabrata infection” (2008)
